For 15 compounds, IC50 and Ki results are on record in ChEMBL document CHEMBL1909046, “DrugMatrix in vitro pharmacology data”.

Test [1] deals with C-C chemokine receptor type 2 (Homo sapiens, UniProt P41597). It counts as cell membranes, CHO-K1, Membrane. Particulars: cho-k1.
A further test has as its target D(1A) dopamine receptor (Homo sapiens, UniProt P21728). Description: DRUGMATRIX: Dopamine D1 radioligand binding (ligand: [3H] SCH-23390). The conditions noted are these: cho; Not Active = under 50% inhibition at 10 µM. Type of test: cell membranes, CHO, Membrane.
For test [2], the target named is T1, Alpha-1A adrenergic receptor (Rattus norvegicus, UniProt P43140).
T1 sequence (P43140 whole entry): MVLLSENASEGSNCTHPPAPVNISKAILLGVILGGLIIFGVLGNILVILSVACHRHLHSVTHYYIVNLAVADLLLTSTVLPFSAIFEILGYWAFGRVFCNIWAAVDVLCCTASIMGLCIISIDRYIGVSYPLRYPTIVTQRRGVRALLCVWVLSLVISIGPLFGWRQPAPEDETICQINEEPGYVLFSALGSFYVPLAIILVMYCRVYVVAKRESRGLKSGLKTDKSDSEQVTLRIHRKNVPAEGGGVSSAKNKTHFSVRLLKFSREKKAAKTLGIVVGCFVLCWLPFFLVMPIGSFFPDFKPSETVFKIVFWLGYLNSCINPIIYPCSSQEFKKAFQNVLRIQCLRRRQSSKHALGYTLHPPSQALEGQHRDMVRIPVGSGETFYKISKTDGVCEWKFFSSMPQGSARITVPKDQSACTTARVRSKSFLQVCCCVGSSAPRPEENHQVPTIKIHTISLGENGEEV
Description: DRUGMATRIX: Alpha-1A adrenergic receptor radioligand binding (ligand: prazosin). It counts as cell membranes, Wistar, Submaxillary gland, Membrane. The conditions noted are these: Not Active = under 50% inhibition at 10 µM.

The next test has as its target Substance-P receptor (Homo sapiens, UniProt P25103). It counts as cell membranes, Membrane. Particulars: cho. Note: in other assays of this panel Not Active means under 50% inhibition at 10 µM.
For test [3], the target named is T2, Amine oxidase [flavin-containing] A (Homo sapiens, UniProt P21397).
T2 sequence (P21397 whole entry): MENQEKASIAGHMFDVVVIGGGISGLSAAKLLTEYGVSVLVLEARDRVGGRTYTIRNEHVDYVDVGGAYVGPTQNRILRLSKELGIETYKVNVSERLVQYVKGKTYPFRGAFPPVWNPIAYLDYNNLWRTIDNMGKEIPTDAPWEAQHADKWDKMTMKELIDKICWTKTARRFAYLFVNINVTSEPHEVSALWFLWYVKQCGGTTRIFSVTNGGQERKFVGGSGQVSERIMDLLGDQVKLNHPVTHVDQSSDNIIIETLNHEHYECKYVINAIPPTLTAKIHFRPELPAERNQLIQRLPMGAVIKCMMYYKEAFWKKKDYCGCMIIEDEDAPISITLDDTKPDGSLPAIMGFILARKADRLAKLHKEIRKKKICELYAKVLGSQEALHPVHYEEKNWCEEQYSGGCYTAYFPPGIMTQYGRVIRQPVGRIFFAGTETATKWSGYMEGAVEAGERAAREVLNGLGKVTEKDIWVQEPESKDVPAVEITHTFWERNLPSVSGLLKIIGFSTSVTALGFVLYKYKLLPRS
In words: DRUGMATRIX: Monoamine Oxidase MAO-A enzyme inhibition (substrate: Kynuramine). On the set-up: species or system BTI-TN-5B1-4. The conditions noted are these: Not Active = under 50% inhibition at 10 µM.

In test [4] the target is T3, 5-hydroxytryptamine receptor 1A (Rattus norvegicus, UniProt P19327). Note: in other assays of this panel Not Active means under 50% inhibition at 10 µM.
T3 sequence (P19327 whole entry): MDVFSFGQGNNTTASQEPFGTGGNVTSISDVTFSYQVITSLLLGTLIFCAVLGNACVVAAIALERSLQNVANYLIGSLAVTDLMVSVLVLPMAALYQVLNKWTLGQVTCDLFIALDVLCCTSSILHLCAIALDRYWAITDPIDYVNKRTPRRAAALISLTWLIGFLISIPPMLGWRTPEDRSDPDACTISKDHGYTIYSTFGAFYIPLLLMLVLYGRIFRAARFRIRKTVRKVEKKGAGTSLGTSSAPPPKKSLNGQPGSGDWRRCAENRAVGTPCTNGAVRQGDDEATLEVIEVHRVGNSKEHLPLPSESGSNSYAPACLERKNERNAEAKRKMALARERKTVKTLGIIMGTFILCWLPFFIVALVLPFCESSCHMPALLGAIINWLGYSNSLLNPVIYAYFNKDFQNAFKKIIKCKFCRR
Type of test: cell membranes, CHO-K1, Membrane. The conditions noted are these: cho-k1.

Chain of Substance-P receptor (P25103 whole entry): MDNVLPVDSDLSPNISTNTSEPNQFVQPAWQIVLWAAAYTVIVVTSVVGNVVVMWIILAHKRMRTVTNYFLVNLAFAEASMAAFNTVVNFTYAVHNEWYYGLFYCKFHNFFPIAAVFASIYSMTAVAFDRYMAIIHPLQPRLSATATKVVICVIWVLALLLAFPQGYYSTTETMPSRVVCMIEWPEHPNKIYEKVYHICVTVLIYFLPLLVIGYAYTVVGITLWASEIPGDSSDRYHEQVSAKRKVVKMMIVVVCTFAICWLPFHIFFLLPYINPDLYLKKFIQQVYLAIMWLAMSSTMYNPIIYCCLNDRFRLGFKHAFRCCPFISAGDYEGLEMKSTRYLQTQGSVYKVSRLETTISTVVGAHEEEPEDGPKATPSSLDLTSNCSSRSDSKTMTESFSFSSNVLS
Chain of D(1A) dopamine receptor (P21728 whole entry): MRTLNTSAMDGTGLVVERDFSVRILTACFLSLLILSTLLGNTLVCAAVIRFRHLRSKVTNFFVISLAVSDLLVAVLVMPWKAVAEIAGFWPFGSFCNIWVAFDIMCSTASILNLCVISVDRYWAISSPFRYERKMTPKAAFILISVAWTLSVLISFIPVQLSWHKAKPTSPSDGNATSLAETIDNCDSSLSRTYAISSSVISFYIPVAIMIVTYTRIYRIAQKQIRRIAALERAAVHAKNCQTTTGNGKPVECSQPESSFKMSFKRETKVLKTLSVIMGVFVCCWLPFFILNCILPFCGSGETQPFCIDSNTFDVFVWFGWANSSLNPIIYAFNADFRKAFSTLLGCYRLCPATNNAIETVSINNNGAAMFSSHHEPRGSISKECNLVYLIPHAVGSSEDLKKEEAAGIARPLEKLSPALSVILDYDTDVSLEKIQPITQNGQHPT
Chain of C-C chemokine receptor type 2 (P41597 whole entry): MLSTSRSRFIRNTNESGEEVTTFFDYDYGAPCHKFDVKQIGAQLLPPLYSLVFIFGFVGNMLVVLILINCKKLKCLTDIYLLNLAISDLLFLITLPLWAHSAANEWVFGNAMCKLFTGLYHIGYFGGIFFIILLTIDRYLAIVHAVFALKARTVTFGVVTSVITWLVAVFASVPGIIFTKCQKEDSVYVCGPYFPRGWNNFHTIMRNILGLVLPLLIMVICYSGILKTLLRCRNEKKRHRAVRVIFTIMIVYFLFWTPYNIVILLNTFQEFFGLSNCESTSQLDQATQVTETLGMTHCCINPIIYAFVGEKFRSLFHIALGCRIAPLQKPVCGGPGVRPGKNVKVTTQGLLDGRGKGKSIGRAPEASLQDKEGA

What is called IC50 is the concentration that inhibits the measured activity by half. Take `C#C[C@]1(O)CC[C@H]2[C@@H]3CCC4=CC(=O)CC[C@@H]4[C@H]3CC[C@@]21C` [NORETHINDRONE]: the IC50 result (in test [1]; at D(1A) dopamine receptor; in test [2]; against Substance-P receptor; in test [3] (bti-tn-5b1-4); in test [4]) was “Not Active” in each case.
Consider `O=C(O)CCc1nc(-c2ccccc2)c(-c2ccccc2)o1` [OXAPROZIN], for which the IC50 result (in test [1]; at D(1A) dopamine receptor; in test [2]; on Substance-P receptor; in test [3] (bti-tn-5b1-4); in test [4]) was “Not Active” each time.
On to `NC(=O)NC(=O)Cc1ccccc1` [PHENACEMIDE], for which the IC50 result (in test [1]; at D(1A) dopamine receptor; in test [2]; against Substance-P receptor; in test [3] (bti-tn-5b1-4); in test [4]) was “Not Active” in each case.
On to `O=C1c2ccccc2C(=O)C1c1ccccc1` [PHENINDIONE], for which the IC50 entry (in test [1]; at D(1A) dopamine receptor; in test [2]; against Substance-P receptor; in test [3] (bti-tn-5b1-4); in test [4]) was “Not Active” throughout.
`CCC1(c2ccccc2)C(=O)NC(=O)NC1=O` [PHENOBARBITAL]: the IC50 entry (in test [1]; on D(1A) dopamine receptor; in test [2]; on Substance-P receptor; in test [3] (bti-tn-5b1-4); in test [4]) was “Not Active” throughout.
`Oc1ccccc1` [PHENOL]: the IC50 entry (in test [1]; at D(1A) dopamine receptor; in test [2]; against Substance-P receptor; in test [3] (bti-tn-5b1-4); in test [4]) was “Not Active” in each case.
With `c1ccc2c(c1)Nc1ccccc1S2` [PHENOTHIAZINE], the IC50 result was “Not Active” in test [1]; “Not Active” at D(1A) dopamine receptor; “Not Active” in test [2]; “Not Active” at Substance-P receptor; 592 nM in test [3] (read-out: IC50); “Not Active” in test [4].
Take `CCN1CCN(C(=O)N[C@@H](C(=O)N[C@@H]2C(=O)N3[C@@H]2SC(C)(C)[C@@H]3C(=O)O)c2ccccc2)C(=O)C1=O` [PIPERACILLIN]: the IC50 result (in test [1]; at D(1A) dopamine receptor; in test [2]; at Substance-P receptor; in test [3] (bti-tn-5b1-4); in test [4]) was “Not Active” throughout.
In the case of `COc1cc([C@@H]2c3cc4c(cc3[C@H](O)[C@H]3COC(=O)[C@H]23)OCO4)cc(OC)c1OC` [PODOFILOX], the IC50 entry (in test [1]; at D(1A) dopamine receptor; in test [2]; against Substance-P receptor; in test [3] (bti-tn-5b1-4); in test [4]) was “Not Active” throughout.
Consider `COc1cc(NC(C)CCCN)c2ncccc2c1` (centres undefined) [PRIMAQUINE], for which the IC50 entry (in test [1]; at D(1A) dopamine receptor; in test [2]; against Substance-P receptor; in test [3] (bti-tn-5b1-4); in test [4]) was “Not Active” each time.
For the compound `COc1ccc(C[C@H](N)C(=O)N[C@H]2[C@@H](O)[C@H](n3cnc4c(N(C)C)ncnc43)O[C@@H]2CO)cc1` [PUROMYCIN], the IC50 entry (in test [1]; at D(1A) dopamine receptor; in test [2]; on Substance-P receptor; in test [3] (bti-tn-5b1-4); in test [4]) was “Not Active” each time.
In the case of CARBOXYMETHYLCELLULOSE, the IC50 entry (in test [1]; at D(1A) dopamine receptor; in test [2]; against Substance-P receptor; in test [3] (bti-tn-5b1-4); in test [4]) was “Not Active” throughout. Besides, the Ki result (in test [1]; on D(1A) dopamine receptor; in test [2]; at Substance-P receptor; in test [3] (bti-tn-5b1-4); in test [4]) was “Not Active” each time.
With CHROMIC CHLORIDE, the IC50 result (in test [1]; at D(1A) dopamine receptor; in test [2]; on Substance-P receptor; in test [3] (bti-tn-5b1-4); in test [4]) was “Not Active” throughout. Besides, the Ki entry (in test [1]; on D(1A) dopamine receptor; in test [2]; on Substance-P receptor; in test [3] (bti-tn-5b1-4); in test [4]) was “Not Active” throughout.
For COPPER(II) OXIDE, the IC50 result (in test [1]; on D(1A) dopamine receptor; in test [2]; on Substance-P receptor; in test [3] (bti-tn-5b1-4); in test [4]) was “Not Active” throughout. Besides, the Ki entry (in test [1]; on D(1A) dopamine receptor; in test [2]; at Substance-P receptor; in test [3] (bti-tn-5b1-4); in test [4]) was “Not Active” throughout.
With POVIDONE, the IC50 entry (in test [1]; at D(1A) dopamine receptor; in test [2]; on Substance-P receptor; in test [3] (bti-tn-5b1-4); in test [4]) was “Not Active” each time. The Ki result (in test [1]; on D(1A) dopamine receptor; in test [2]; on Substance-P receptor; in test [3] (bti-tn-5b1-4); in test [4]) was “Not Active” throughout.
